Measured values taken from patent US7790710B2, “Imidazopyridine derivatives useful as iNOS inhibitors” (NYCOMED GmbH, priority 2005, dated 2010).

Tests used:
[1] = target: T1, human inducible NO-synthase (Homo sapiens, UniProt P35228); test: Measurement of inducible NO-synthase activity; type: biochemical; conditions: crude cytosolic fraction containing human iNOS; 0.1 μM arginine; [3H]arginine; read-out: Inhibition of iNOS activity -logIC50 (converted)
Procedure: (§1) The assay is performed in 96-well microtiter F-plates (Greiner, Frickenhausen, FRG) in a total volume of 100 μl in the presence of 100 nM calmodulin, 226 μM CaCl2, 477 μM MgCl2, 5 μM flavin-adenine-dinucleotide (FAD), 5 μM flavin mononucleotide (FMN), 0.1 mM nicotinamide adenine dinucleotide phosphate (NADPH), 7 mM glutathione, 10 μM tetrahydrobiopterine (BH4) and 100 mM 4-(2-hydroxyethyl)piperazine-1-ethanesulfonic acid (HEPES) pH 7.2. Arginine concentrations are 0.1 μM for enzyme inhibition experiments. 150000 dpm of [^3H]arginine are added to the assay mixture. Enzyme reaction is started by the addition of 4 μg of a crude cytosolic fraction containing human inducible NO-synthase and the reaction mixture is incubated for 45 to 60 min at 37° C. Enzyme reaction is stopped by adding 10 μl of 2M 2-morpholinoethane sulfonic acid buffer (MES-buffer) pH 5.0. 50 μl of the incubation mixture are transferred into a MADP N65 filtration microtiter plate (Millipore, Eschborn, FRG) containing already 50 μl of AG-50W-X8 cation exchange resin (Biorad, München, FRG). The resin in the Na loaded form is pre-equilibrated in water and 70 μl (corresponding to 50 μl dry beads) are pipetted under heavy stirring with a 8 channel pipette into the filtration plate. After pipetting 50 μl of the enzyme reaction mixture onto the filtration plates, the plates are placed on a filtration manifold (Porvair, Shepperton, UK) and the flow through is collected in Pico scintillation plates (Packard, Meriden, Conn.). The resin in the filtration plates is washed with 75 μl of water (1×50 μl and 1×25 μl) which is also collected in the same plate as the sample. The total flow through of 125 μl is mixed with 175 μl of Microscint-40 scintillation cocktail (Packard) and the scintillation plate is sealed with TopSeal P-foil (Packard). Scintillation plates are counted in a szintillation counter.
(§2) For the measurement of inducible NO-synthase-inhibiting potencies of compounds according to the invention increasing concentrations of inhibitors are included into the incubation mixture. IC50 values are calculated from the percent inhibition at given concentrations by nonlinear least square fitting.

[2] = target: T1, human inducible NO-synthase; test: Measurement of inducible NO-synthase activity in the presence of 20% human plasma serum; type: biochemical; conditions: 20% (v/v) human plasma serum added into the reaction volume; read-out: Inhibition of iNOS activity -logIC50 20% human serum (converted)
Procedure: as §1, §2
The assay determining the human plasma serum binding of compounds according to the invention was performed essentially as the enzymatic activity assay described above. Human plasma serum 20% (v/v) was added into the reaction volume. Human serum was obtained after coagulation and sedimentation of drawn donor blood. After centrifugation (two times 3500 rpm, 30 min) the plasma serum was dialyzed in phosphate buffered saline (PBS) for 18 h using dialysis cassettes with a molecular weight cuttoff of 3500 Dalton (Slide-a-Lyzer 3.5 K, Pierce, Rockford Ill.) in order to reduce the L-arginine concentration that is interfering with the radioactive activity assay. The buffer was refreshed 5 times during dialysis. The serum was aliquoted and frozen at −20° C. until use. Inhibitory potency of the compounds according to the invention was determined as described above.

Structure (SMILES) | IC50 [1] | IC50 [2] | melting point
NC1=NC(CCc2nc3cc(-c4cc5ccccc5o4)cnc3[nH]2)CCCC1 (stereo not shown) [compound 4, 7-[2-(6-Benzofuran-2-yl-3H-imidazo[4,5-b]pyridin-2-yl)-ethyl]-4,5,6,7-tetrahydro-3H-azepin-2-ylamine] | 229 nM | 955 nM | 
CCN1CCN(S(=O)(=O)c2ccc(-c3cnc4[nH]c(CCC5CCCCC(N)=N5)nc4c3)cc2)CC1 (stereo not shown) [compound 7, 7-(2-{6-[4-(4-Ethyl-piperazine-1-sulfonyl)-phenyl]-3H-imidazo[4,5-b]pyridin-2-yl}-ethyl)-4,5,6,7-tetrahydro-3H-azepin-2-ylamine] | 468 nM |  | 199 °C
Cc1ccc(NS(=O)(=O)c2ccc(-c3cnc4[nH]c(CCC5CCCCC(N)=N5)nc4c3)cc2)c(F)c1 (stereo not shown) [compound 8, 4-{2-[2-(7-Amino-3,4,5,6-tetrahydro-2H-azepin-2-yl)-ethyl]-3H-imidazo[4,5-b]pyridin-6-yl}-N-(2-fluoro-4-methyl-phenyl)-benzenesulfonamide] | 589 nM |  | 265 °C
Cc1ccccc1NS(=O)(=O)c1ccc(-c2cnc3[nH]c(CCC4CCCCC(N)=N4)nc3c2)cc1 (stereo not shown) [compound 9, 4-{2-[2-(7-Amino-3,4,5,6-tetrahydro-2H-azepin-2-yl)-ethyl]-3H-imidazo[4,5-b]pyridin-6-yl}-N-o-tolyl-benzenesulfonamide] | 398 nM |  | 215 °C
CN(CC1CCCO1)S(=O)(=O)c1ccc(-c2cnc3[nH]c(CCC4CCCCC(N)=N4)nc3c2)cc1 (stereo not shown) [compound 10, 4-{2-[2-(7-Amino-3,4,5,6-tetrahydro-2H-azepin-2-yl)-ethyl]-3H-imidazo[4,5-b]pyridin-6-yl}-N-methyl-N-(tetrahydro-furan-2-ylmethyl)-benzenesulfonamide] | 617 nM |  | 260 °C

The next lines start with the values.

IC50 [1] | IC50 [2] | melting point | Structure (SMILES)
170 nM | 1000 nM | 117 °C (dec.) | NC1=NC(CCc2nc3cc(-c4ccccc4)cnc3[nH]2)CCCC1 (stereo not shown) [compound 1, 7-[2-(6-Phenyl-3H-imidazo[4,5-b]pyridin-2-yl)-ethyl]-4,5,6,7-tetrahydro-3H-azepin-2-ylamine]
224 nM | 398 nM | 175 °C (dec.) | N#Cc1ccc(-c2cnc3[nH]c(CCC4CCCCC(N)=N4)nc3c2)cc1 (stereo not shown) [compound 2, 7-[2-(6-{4-Cyano-phen-1-yl}-3H-imidazo[4,5-b]pyridin-2-yl)-ethyl]-4,5,6,7-tetrahydro-3H-azepin-2-ylamine]
251 nM | 1580 nM | 306 °C | COc1ccc(-c2cnc3[nH]c(CCC4CCCCC(N)=N4)nc3c2)cc1 (stereo not shown) [compound 3, 7-{2-[6-(4-Methoxy-phenyl)-3H-imidazo[4,5-b]pyridin-2-yl]-ethyl}-4,5,6,7-tetrahydro-3H-azepin-2-ylamine]
229 nM | 933 nM | 195 °C (dec.) | CN(C)S(=O)(=O)c1ccc(-c2cnc3[nH]c(CCC4CCCCC(N)=N4)nc3c2)cc1 (stereo not shown) [compound 5, 4-{2-[2-(7-Amino-3,4,5,6-tetrahydro-2H-azepin-2-yl)-ethyl]-3H-imidazo[4,5-b]pyridin-6yl}-N,N-dimethyl-benzenesulfonamide]
302 nM | 603 nM | 154 °C (dec.) | NC1=NC(CCc2nc3cc(-c4ccc(S(=O)(=O)N5CCC5)cc4)cnc3[nH]2)CCCC1 (stereo not shown) [compound 6, 7-(2-{6-[4-(Azetidine-1-sulfonyl)-phenyl]-3H-imidazo[4,5-b]pyridin-2-yl}-ethyl)-4,5,6,7-tetrahydro-3H-azepin-2-ylamine]
